In patent US20100029761A1, “NOVEL COMPOUNDS, PHARMACEUTICAL COMPOSITIONS CONTAINING SAME, AND METHODS OF USE FOR SAME” (priority 2005, published 2010):
Several values for one entry are separate records, joined by “and”; a condition that tells them apart may be missing. Equal entries are not always repeated.

Legend:
[1] = test system: β-Oxidation of (1-14C) palmitic acid in cells; assay: β-Oxidation assay, isolation of acid soluble products; assay type: cell-based; parameters: unit not given here
Protocol: A 24 well plate with 1 ml per well was prepared with 2.5×10^5 cells /well. The cells were incubated O/N. The next day, a solubilized palmitate solution was prepared. 50 μls of (1−^14C) Palmitic acid was added to a 2 ml centrifuge tube and dried under nitrogen gas. 2 mls of α-CD (α-Cyclodextran)—10 mg/ml in 10 mM Tris were added. This solution was incubated in a 37° C. water bath for 30 minutes. A hot mix was prepared by adding 25 μl of this solution to 2.5 μls of 200 μM Carnitine and 222.5 μl of serum free medium that is used for cells. The cells were then treated with the test compound in triplicate, and incubated. at 37° C. for 60 minutes. The medium was removed and 250 μl of the hot mix were added. The test compound was added again, and further incubated at 37° C. for 60 minutes. The reaction was stopped with 50 μl of 2.6 N HClO4. The contents of the plate were transferred to a 1.5 ml centrifuge tube, and 50 μl of 4N KOH were then added, and the tube incubated in a 60° C. water bath for 30 min. Sodium acetate (1 M, 75 μl) and sulfuric acid (3N, 50 μl) were added to the solution and vortexed. The tube was spun for 7 minutes at 1000 rpm at room temperature. A portion (225 μl) was removed, and the following were added (vortex after each addition, twice at the end): 938 μl of 1:1 Chloroform: Methanol; 468 μl of Chloroform; 281 μl distilled Water. The tubes were spun at 1000 rpm for 5 minutes. The upper phase was removed into a large glass scintillation vial and 5 ml of Budget solvent (scintillation liquid) was added. The tubes were well vortexed. Finally, ^14C was counted for one minute.

[2] = biological target: rat liver acyl-CoA synthetase; conditions: read-out: 50% inhibition of rat liver acyl-CoA synthetase; cited from earlier work
Raji cells = conditions: cited from earlier work
viral HIV protease = viral HIV protease (Human immunodeficiency virus type 1 group M subtype B, UniProt P04585); conditions: cited from earlier work
[3] = test system: Mycobacterium tuberculosis; conditions: in vitro; cited from earlier work

CCCCCCCCC1OC(=O)C(O)=C1C(=O)OCC (stereo not shown) [Compound 1]
Beta oxidation ([1]; 0.04 ug/ml): 94 and 103 and 120
Beta oxidation ([1]; 0.19 ug/ml): 108 and 104 and 113
Beta oxidation ([1]; 3.13 ug/ml): 113 and 109 and 107
Beta oxidation ([1]; 12.5 ug/ml): 114 and 107 and 100
Beta oxidation ([1]; 50 ug/ml): 54 and 49 and 45
Beta oxidation ([1]; .78 ug/ml): 104 and 106

CCCC=CCC=CC=CC=NN=NO [Triacsin C, 1-hydroxy-3-(E, E, E-2′,4′,7′-undecatrienylidine) triazene]
IC50 [2]: 8.7 µM
concentration causing growth inhibition in Raji cells (Raji cells): 1.0 µM

C/C=C/C/C=C/CCC(=O)[C@H]1O[C@H]1C(N)=O [cerulenin, (2s, 3R)-2,3-epoxy-4-oxo-7,10 dodecadienoyl amide]
concentration for inhibition of viral HIV protease (viral HIV protease): 5 mg/mL
activity against Mycobacterium tuberculosis [3]: no activity
